We go through two compounds from PMC4823724 (Scientific Reports, 2016).

Assay [1] relates to RpfG.
Assay [2] relates to RpfG. This is another data set of the same source.

Chain of RpfG (G7TEN6 1-378): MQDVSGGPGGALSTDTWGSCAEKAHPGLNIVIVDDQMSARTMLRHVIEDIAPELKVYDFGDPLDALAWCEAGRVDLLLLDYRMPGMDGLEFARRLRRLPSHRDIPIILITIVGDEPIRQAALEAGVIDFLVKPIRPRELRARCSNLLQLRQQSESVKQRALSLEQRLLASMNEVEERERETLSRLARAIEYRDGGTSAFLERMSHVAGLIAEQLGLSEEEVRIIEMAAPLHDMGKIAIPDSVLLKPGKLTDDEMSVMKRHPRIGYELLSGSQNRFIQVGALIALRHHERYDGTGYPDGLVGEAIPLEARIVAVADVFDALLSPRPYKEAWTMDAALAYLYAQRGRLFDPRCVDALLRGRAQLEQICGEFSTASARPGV

Turning to `Nc1nc2c(ncn2[C@@H]2O[C@@H]3COP(=O)(O)O[C@H]4[C@@H](O)[C@H](n5cnc6c(=O)[nH]c(N)nc65)O[C@@H]4COP(=O)(O)O[C@H]3[C@H]2O)c(=O)[nH]1` [c-di-GMP], the HPLC phosphodiesterase assay entry in the assay on RpfG [1] is “degraded product pGpG was produced when RpfG was incubated with c-di-GMP”.

For `O=[N+]([O-])c1ccc(OP(=O)(O)Oc2ccc([N+](=O)[O-])cc2)cc1` [bis(p-nitrophenyl) phosphate], the “colorimetric phosphodiesterase assay at 410 nm” value in the assay on RpfG [2] is given as “RpfG efficiently converted bis(p-nitrophenyl) phosphate into p-nitrophenol”.
